According to patent US20190231757A1, “COMBINATION OF SPLEEN TYROSINE KINASE INHIBITORS AND OTHER THERAPEUTIC AGENTS” (Takeda Pharmaceutical Company Limited, priority 2016, published 2019):
Several values for one entry are separate records, joined by “and”; a condition that tells them apart may be missing. Equal entries are not always repeated. Structures can show the parent of a compound that is named as a salt.

Columns and labels:
[1] = system: A20 mouse syngeneic B-cell lymphoma; experiment: Antitumor activity in Balb/c mice bearing A20 syngeneic B-cell lymphoma (Example 1); assay type: in vivo
[2] = system: OCI-Ly10 human lymphoma xenografts; experiment: Antitumor activity in SCID mice bearing OCI-Ly10 human lymphoma xenografts, bendamustine and rituximab (Example 6); assay type: in vivo, mouse; conditions: Day 21, citrate
[3] = system: WSU-Luc human lymphoma xenografts; experiment: Antitumor activity in SCID mice bearing WSU-Luc human lymphoma xenografts, ibrutinib combination (Example 12); assay type: in vivo, mouse; conditions: Day 20, alone or combined
Protocol: The study ended on Day 20 of dosing.
Tumor growth was monitored with vernier calipers. Tumor volume was calculated using the formula V=W^2×L/2, where V=volume, W=width and L=length of the tumor. When the mean tumor volume reached approximately 190 mm^3, the animals were randomized into treatment groups (n=8/group). […] Tumor growth and body weight were measured twice per week. Tumor growth inhibition and body weight change were calculated on Day 20 of treatment.
Statistical analysis: The differences in the tumor growth trends over time between pairs of treatment groups were assessed using linear mixed effects regression models. These models account for the fact that each animal was measured at multiple time points. A separate model was fit for each comparison, and the areas under the curve (AUC) for each treatment group were calculated using the predicted values from the model. The percent decrease in AUC (dAUC) relative to the reference group was then calculated.
The change in AUC relative to the control was calculated for both single agent treatment groups as well as the combination group. […] The results can be divided into four categories: synergistic, additive, sub-additive, and antagonistic.
For this analysis, a T/C ratio was calculated for each animal by dividing the tumor measurement for the given animal by the mean tumor measurement across all control animals. The T/C ratios across a treatment group were compared to the T/C ratios of the control group using a two-tailed Welch's t-test.

[4] = system: Ly10 human lymphoma xenografts; experiment: Antitumor activity in SCID mice bearing Ly10 xenografts, rituximab combination (Example 13); assay type: in vivo, mouse; conditions: alone or combined
[5] = system: Ly19 human lymphoma xenografts; experiment: Antitumor activity in SCID mice bearing Ly19 xenografts, rituximab combination (Example 14); assay type: in vivo, mouse; conditions: alone or combined
[6] = Body weight and tolerability, A20 study (Example 1); assay type: in vivo, mouse; conditions: Compound A 60 mg/kg PO QD 21 d, anti-PD-1 10 mg/kg IP Q4D x3, alone or combined
[7] = Body weight and tolerability, OCI-LY10 gemcitabine study (Example 7); assay type: in vivo, mouse; conditions: alone or combined
Protocol: (§1) Experimental design: Female CB17 SCID mice (Taconic Biosciences; weight at treatment start was 20 g) were inoculated subcutaneously in the flank (cell suspension) with 4.0×10^6 OCI-Ly10 cells. Tumor volume was calculated using the formula V=W^2×L/2, where V=volume, W=width and L=length of the tumor. When the mean tumor volume reached approximately 199 mm^3, the animals were randomized into 6 treatment groups (n=8/group). […] Tumor growth and body weight were measured twice per week. Tumor growth inhibition and body weight change were calculated on Day 21 of treatment.

[8] = Body weight and tolerability, TMD8 ABT-199/gemcitabine study (Example 9); assay type: in vivo, mouse; conditions: alone or combined with Compound A
Protocol: as §1, with “about 19” for “20”, “5.0×10^6 TMD8” for “4.0×10^6 OCI-Ly10”, “cells. Tumor growth was monitored with vernier calipers.” for “cells.”, “245” for “199”, “14” for “21”

[9] = system: sensitive cell systems; experiment: Activity in sensitive cell systems; assay type: cell-based
[10] = mouse, in vivo, po, 60 mg/kg
[11] = mouse, in vivo, po, 60 mg/kg; remark: listed apart in the source
[12] = Compound A 60 mg/kg PO QD, anti-PD-1 10 mg/kg IP Q4D x3, alone or combined, Day 19
[13] = Compound A 60 mg/kg, ibrutinib 20 mg/kg
[14] = Day 21, Compound A 60 mg/kg PO QD x21, rituximab 1 mg/kg IV QW x3
[15] = Day 14, Compound A 60 mg/kg PO QD x14, rituximab 10 mg/kg IV QW x2

## Cn1cc(-c2nc(N[C@@H]3CCCC[C@@H]3N)c(F)c3c2C(=O)NC3)cn1 [Compound A, 6-((1R,2S)-2-aminocyclohexylamino)-7-fluoro-4-(1-methyl-1H-pyrazol-4-yl)-1H-pyrrolo[3,4-c]pyridine-3 (2H)-one citrate]
[1]; Compound A 60 mg/kg PO QD 21 d, anti-PD-1 10 mg/kg IP Q4D x3, alone or combined, Day 19
  Mean Tumor Volume (mm^3) ± SEM: 1,582.9 ± 317.2 mm^3
[1]; [12]
  T/C: 0.85
  TGI (%): 15.3%
[1]; reference 0.5% methylcellulose, Compound A 60 mg/kg, anti-PD-1 10 mg/kg, days >19 excluded
  dAUC (percent decrease in AUC, pairwise comparison): 10.2
[2]; Compound A 30 mg/kg PO QD x21, bendamustine 1 mg/kg IV BIW, rituximab 1 mg/kg IV QW x3, alone or combined
  TGI: 24.2%
[2]; Compound A 60 mg/kg PO QD x21, 60 mg/kg
  TGI: 51.1%
[3]; Compound A 60 mg/kg PO QD, ibrutinib 20 mg/kg PO QD
  TGI (%): 37.6%
[3]; [13]
  Mean Tumor Volume (mm^3) ± SEM: 680.4 ± 120.1 mm^3
  T/C: 0.62
[4]; [14]
  Mean Tumor Volume (mm^3) ± SEM at Day 21: 217.6 ± 25.6 mm^3
  TGI (%): 76.0%
[4]; vs vehicle, Compound A 60 mg/kg, rituximab 1 mg/kg
  dAUC: 122.4
[5]; [15]
  Mean Tumor Volume (mm^3) ± SEM at Day 14: 1594.0 ± 115.6 mm^3
  TGI (%): 36.6%
[5]; vs vehicle, Compound A 60 mg/kg, rituximab 10 mg/kg
  dAUC: 11.5
[6]
  Number of animals removed: 1
[6]; maximum change within treatment period, citrate
  % BW Change (Day Maximum): 15.8% and 15.8 (19) %
[7]; Compound A 60 mg/kg PO QD 21 d, gemcitabine 2.5 mg/kg IP Q3D (4 doses)
  % BW Change (Day Maximum): 6.8 (21) %
[7]; Compound A 60 mg/kg, gemcitabine 2.5 mg/kg
  Number of animals removed: 0
[8]; Compound A 60 mg/kg PO QD 14 d, ABT-199 25 mg/kg PO QD 14 d, gemcitabine 5 mg/kg IP Q3D x4
  % BW Change (Day Maximum): 7.9 (14) %
[8]; Compound A 60 mg/kg, ABT-199 25 mg/kg, gemcitabine 5 mg/kg
  Number of animals removed: 0
[9]
  EC50: 25 to 400 nM
[10]
  increase in mean body weight on Day 14 compared to Day 0: 1.6 g
[11]
  Maximum mean % BWL: 0%
